In ChEMBL document CHEMBL3286253, “Design, synthesis, and structure-activity relationship studies of novel thioether pleuromutilin derivatives as potent antibacterial agents” (J Med Chem, 2014):
≈ marks a conversion by molar mass, not a printed value.

Tests used:
Format in all cases: functional
[1] = test system: Staphylococcus epidermidis; assay: Antibacterial activity against methicillin-resistant Staphylococcus epidermidis after 16 hrs by agar dilution method
Streptococcus pneumoniae = assay: Antibacterial activity against penicillin-resistant Streptococcus pneumoniae after 16 hrs by agar dilution method
Staphylococcus aureus [2] = assay: Antibacterial activity against Staphylococcus aureus […] after 16 hrs by agar dilution method
Staphylococcus aureus [3] = assay: Antibacterial activity against methicillin-sensitive Staphylococcus aureus after 16 hrs by agar dilution method
Staphylococcus aureus [4] = assay: Antibacterial activity against methicillin-resistant Staphylococcus aureus after 16 hrs by agar dilution method
[5] = test system: Staphylococcus epidermidis; assay: Antibacterial activity against methicillin-sensitive Staphylococcus epidermidis after 16 hrs by agar dilution method

Structure (SMILES) | MIC [1] | MIC (Streptococcus pneumoniae) | MIC (Staphylococcus aureus [2]) | MIC (Staphylococcus aureus [3]) | MIC (Staphylococcus aureus [4]) | MIC [5]
C=C[C@]1(C)C[C@@H](OC(=O)CSc2cncc(NC(=O)CN3CCCC3)c2)[C@]2(C)[C@H](C)CC[C@]3(CCC(=O)[C@H]32)[C@@H](C)[C@@H]1O | 0.125 µg/mL (≈ 0.209 µM) | 0.031 µg/mL (≈ 0.0519 µM) | 0.125 µg/mL (≈ 0.209 µM) | 0.125 µg/mL (≈ 0.209 µM) | 0.125 µg/mL (≈ 0.209 µM) | 0.031 µg/mL (≈ 0.0519 µM)
C=C[C@]1(C)C[C@@H](OC(=O)CSc2cccs2)[C@]2(C)[C@H](C)CC[C@]3(CCC(=O)[C@H]32)[C@@H](C)[C@@H]1O | 0.25 µg/mL (≈ 0.524 µM) | 0.125 µg/mL (≈ 0.262 µM) | 0.5 µg/mL (≈ 1.05 µM) | 0.5 µg/mL (≈ 1.05 µM) | 0.5 µg/mL (≈ 1.05 µM) | 0.25 µg/mL (≈ 0.524 µM)
C=C[C@]1(C)C[C@@H](OC(=O)CSc2ccncc2CO)[C@]2(C)[C@H](C)CC[C@]3(CCC(=O)[C@H]32)[C@@H](C)[C@@H]1O | 0.063 µg/mL (≈ 0.126 µM) | 0.125 µg/mL (≈ 0.249 µM) | 0.063 µg/mL (≈ 0.126 µM) | 0.063 µg/mL (≈ 0.126 µM) | 0.063 µg/mL (≈ 0.126 µM) | 0.063 µg/mL (≈ 0.126 µM)
C=C[C@]1(C)C[C@@H](OC(=O)CSc2cc(C#N)ccn2)[C@]2(C)[C@H](C)CC[C@]3(CCC(=O)[C@H]32)[C@@H](C)[C@@H]1O | 0.063 µg/mL (≈ 0.127 µM) | 0.063 µg/mL (≈ 0.127 µM) | 0.125 µg/mL (≈ 0.252 µM) | 0.063 µg/mL (≈ 0.127 µM) | 0.063 µg/mL (≈ 0.127 µM) | 0.063 µg/mL (≈ 0.127 µM)
C=C[C@]1(C)C[C@@H](OC(=O)CSc2ccnc(N)c2)[C@]2(C)[C@H](C)CC[C@]3(CCC(=O)[C@H]32)[C@@H](C)[C@@H]1O | 0.063 µg/mL (≈ 0.129 µM) | 0.063 µg/mL (≈ 0.129 µM) | 0.063 µg/mL (≈ 0.129 µM) | 0.063 µg/mL (≈ 0.129 µM) | 0.063 µg/mL (≈ 0.129 µM) | 0.063 µg/mL (≈ 0.129 µM)
C=C[C@]1(C)C[C@@H](OC(=O)CSc2ncccc2C#N)[C@]2(C)[C@H](C)CC[C@]3(CCC(=O)[C@H]32)[C@@H](C)[C@@H]1O | 0.5 µg/mL (≈ 1.01 µM) | 0.5 µg/mL (≈ 1.01 µM) | 1 µg/mL (≈ 2.01 µM) | 0.5 µg/mL (≈ 1.01 µM) | 0.5 µg/mL (≈ 1.01 µM) | 0.5 µg/mL (≈ 1.01 µM)
C=C[C@]1(C)C[C@@H](OC(=O)CSc2cncc(NC(=O)CN3CCC[C@H]3CO)c2)[C@]2(C)[C@H](C)CC[C@]3(CCC(=O)[C@H]32)[C@@H](C)[C@@H]1O | 0.125 µg/mL (≈ 0.199 µM) | 0.125 µg/mL (≈ 0.199 µM) | 0.063 µg/mL (≈ 0.1 µM) | 0.125 µg/mL (≈ 0.199 µM) | 0.125 µg/mL (≈ 0.199 µM) | 0.125 µg/mL (≈ 0.199 µM)
C=C[C@]1(C)C[C@@H](OC(=O)CSc2cncc(/C=N/N)c2)[C@]2(C)[C@H](C)CC[C@]3(CCC(=O)[C@H]32)[C@@H](C)[C@@H]1O | 0.25 µg/mL (≈ 0.487 µM) | 0.25 µg/mL (≈ 0.487 µM) | 0.25 µg/mL (≈ 0.487 µM) | 0.25 µg/mL (≈ 0.487 µM) | 0.25 µg/mL (≈ 0.487 µM) | 0.25 µg/mL (≈ 0.487 µM)
C=C[C@]1(C)C[C@@H](OC(=O)CSc2ncccc2N)[C@]2(C)[C@H](C)CC[C@]3(CCC(=O)[C@H]32)[C@@H](C)[C@@H]1O | 0.125 µg/mL (≈ 0.257 µM) | 0.25 µg/mL (≈ 0.514 µM) | 0.5 µg/mL (≈ 1.03 µM) | 0.25 µg/mL (≈ 0.514 µM) | 0.25 µg/mL (≈ 0.514 µM) | 0.125 µg/mL (≈ 0.257 µM)
C=C[C@]1(C)C[C@@H](OC(=O)CSc2cncc(/C=N/O)c2)[C@]2(C)[C@H](C)CC[C@]3(CCC(=O)[C@H]32)[C@@H](C)[C@@H]1O | 0.063 µg/mL (≈ 0.122 µM) | 0.063 µg/mL (≈ 0.122 µM) | 0.063 µg/mL (≈ 0.122 µM) | 0.063 µg/mL (≈ 0.122 µM) | 0.063 µg/mL (≈ 0.122 µM) | 0.063 µg/mL (≈ 0.122 µM)
C=C[C@]1(C)C[C@@H](OC(=O)CSc2ccncc2)[C@]2(C)[C@H](C)CC[C@]3(CCC(=O)[C@H]32)[C@@H](C)[C@@H]1O | 0.063 µg/mL (≈ 0.134 µM) | 0.063 µg/mL (≈ 0.134 µM) | 0.031 µg/mL (≈ 0.0657 µM) | 0.063 µg/mL (≈ 0.134 µM) | 0.063 µg/mL (≈ 0.134 µM) | 0.063 µg/mL (≈ 0.134 µM)
C=C[C@]1(C)C[C@@H](OC(=O)CSc2cncc(NC(=O)CN(C)C)c2)[C@]2(C)[C@H](C)CC[C@]3(CCC(=O)[C@H]32)[C@@H](C)[C@@H]1O | 0.125 µg/mL (≈ 0.219 µM) | 0.125 µg/mL (≈ 0.219 µM) | 0.5 µg/mL (≈ 0.874 µM) | 0.5 µg/mL (≈ 0.874 µM) | 0.125 µg/mL (≈ 0.219 µM) | 0.125 µg/mL (≈ 0.219 µM)
C=C[C@]1(C)C[C@@H](OC(=O)CSc2cncc(/C=N/OCC)c2)[C@]2(C)[C@H](C)CC[C@]3(CCC(=O)[C@H]32)[C@@H](C)[C@@H]1O | 1 µg/mL (≈ 1.84 µM) | 1 µg/mL (≈ 1.84 µM) | 1 µg/mL (≈ 1.84 µM) | 1 µg/mL (≈ 1.84 µM) | 1 µg/mL (≈ 1.84 µM) | 1 µg/mL (≈ 1.84 µM)
C=C[C@]1(C)C[C@@H](OC(=O)CSc2cncc(NC(=O)CN3CCCCC3)c2)[C@]2(C)[C@H](C)CC[C@]3(CCC(=O)[C@H]32)[C@@H](C)[C@@H]1O | 0.125 µg/mL (≈ 0.204 µM) | 0.125 µg/mL (≈ 0.204 µM) | 0.125 µg/mL (≈ 0.204 µM) | 0.125 µg/mL (≈ 0.204 µM) | 0.25 µg/mL (≈ 0.409 µM) | 0.125 µg/mL (≈ 0.204 µM)
C=C[C@]1(C)C[C@@H](OC(=O)CSc2ncccc2[N+](=O)[O-])[C@]2(C)[C@H](C)CC[C@]3(CCC(=O)[C@H]32)[C@@H](C)[C@@H]1O | 0.063 µg/mL (≈ 0.122 µM) | 0.125 µg/mL (≈ 0.242 µM) | 0.125 µg/mL (≈ 0.242 µM) | 0.125 µg/mL (≈ 0.242 µM) | 0.063 µg/mL (≈ 0.122 µM) | 0.125 µg/mL (≈ 0.242 µM)
C=C[C@]1(C)C[C@@H](OC(=O)CSc2cncc(C(=O)OC)c2)[C@]2(C)[C@H](C)CC[C@]3(CCC(=O)[C@H]32)[C@@H](C)[C@@H]1O | 0.25 µg/mL (≈ 0.472 µM) | 0.25 µg/mL (≈ 0.472 µM) | 1 µg/mL (≈ 1.89 µM) | 1 µg/mL (≈ 1.89 µM) | 0.125 µg/mL (≈ 0.236 µM) | 1 µg/mL (≈ 1.89 µM)
C=C[C@]1(C)C[C@@H](OC(=O)CSc2ncccn2)[C@]2(C)[C@H](C)CC[C@]3(CCC(=O)[C@H]32)[C@@H](C)[C@@H]1O | 0.063 µg/mL (≈ 0.133 µM) | 0.125 µg/mL (≈ 0.264 µM) | 0.125 µg/mL (≈ 0.264 µM) | 0.125 µg/mL (≈ 0.264 µM) | 0.063 µg/mL (≈ 0.133 µM) | 0.125 µg/mL (≈ 0.264 µM)
